# *1 amine or outer side, *2 acyl side, *3 side chain or, on linkers, in order; H or OH if unused. Where a SMILES comes first, the peptide text is derived from it. Bridges are numbered along the chain shown (N, C = ends). [ ]: non-standard residue; d: D form. TBMB = c1c(C[*:1])cc(C[*:3])cc1C[*:2]; hArg = N=C(N)NCCCC[C@H](N)C(=O)O; Aze = O=C(O)[C@@H]1CCN1; Sar = CNCC(=O)O
# Assays:
# human plasma kallikrein = biological target: T1, human plasma kallikrein (Homo sapiens, UniProt P03952); test: Functional enzyme assay, inhibition of human plasma kallikrein (Z-PheArg-AMC substrate); format: biochemical
# T1 construct: purchased Stratech, UK
# T1 sequence (P03952 391-638 limits assumed): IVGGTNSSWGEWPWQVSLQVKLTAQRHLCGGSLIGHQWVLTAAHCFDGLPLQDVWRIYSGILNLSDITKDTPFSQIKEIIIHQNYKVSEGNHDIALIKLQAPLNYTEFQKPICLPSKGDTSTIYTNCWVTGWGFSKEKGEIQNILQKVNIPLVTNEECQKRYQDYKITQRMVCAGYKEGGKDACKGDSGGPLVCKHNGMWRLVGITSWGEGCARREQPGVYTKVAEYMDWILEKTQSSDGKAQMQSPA
# T1 sequence (P03952 20-390 partner limits assumed): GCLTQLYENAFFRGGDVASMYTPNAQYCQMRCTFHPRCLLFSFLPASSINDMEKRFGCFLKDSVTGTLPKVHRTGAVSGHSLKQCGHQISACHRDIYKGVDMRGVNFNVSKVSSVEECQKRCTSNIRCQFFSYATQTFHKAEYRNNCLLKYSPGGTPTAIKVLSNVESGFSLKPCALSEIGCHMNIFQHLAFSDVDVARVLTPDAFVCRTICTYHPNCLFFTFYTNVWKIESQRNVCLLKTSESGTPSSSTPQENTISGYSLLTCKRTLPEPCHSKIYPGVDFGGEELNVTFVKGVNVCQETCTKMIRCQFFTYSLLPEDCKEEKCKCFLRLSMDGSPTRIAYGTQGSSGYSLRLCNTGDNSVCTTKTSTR
# Summary of the method: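 Buffer 10 mM Tris HCl, 150 mM NaCl, 10 mM MgCl2, 1 mM CaCl2, 1 mg/mL BSA, pH 7.4, 25° C. AMC release read at ex 360/em 460 nm; linear-phase rate (typically 5–45 min) fitted by four-parameter non-linear regression for IC50, with Ki also derived.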
# [1] = Plasma stability profiling Method #2 (95% plasma, MALDI-TOF), rat plasma; format: in vitro ADME; conditions: qualitative, sampled up to 46 hrs
# Description: (§1) To obtain stability data more rapidly, peptides were also assessed in 95% plasma. Here, PBS was omitted, and a 1-5 mM peptide stock (in DMSO) was directly diluted into plasma (i.e. 2.5 μL stock into 47.5 μL plasma), giving a final concentration of 50 μM. 5 μL samples were taken at appropriate time points and frozen at −80° C. For analysis, the samples were defrosted, mixed with 25 μL of 3:3:1 acetonitrile:methanol:water, and centrifuged at 13 k for 5 min. 5 μL of the peptide-containing supernatant was aspirated and mixed with 30 mM ammonium bicarbonate in a 1:1 mixture of acetonitrile:H2O. 1 μL of this was then spotted on the MALDI plate and analysed as described above. As above, it should be noted that this is a qualitative assay serves to detect relative changes in plasma stability.
# [2] = Plasma stability profiling Method #2 (95% plasma, MALDI-TOF), human plasma; format: in vitro ADME; conditions: qualitative, sampled up to 46 hrs
# Description: as §1
# [3] = Intravenous pharmacokinetics in rat; format: in vivo; conditions: in vivo, Table 8, Sprague Dawley rat, iv 5 mg/kg
# Description: Peptides used for the pharmacokinetic studies in Example 4 were lyophilised from 10 mM HCl in water 3 times to afford the hydrochloride salts of the compounds. Solutions were dosed by intravenous bolus at 1 mg/mL in 50 mM Hepes pH 7.0, 5% glycerol, 1.9% DMSO for two compounds (Ac-(06-550) Aze3 HArg5 Sar3-(D-Arg2)) and (06-259-02)-Sar3-(D-Arg2)) at 5 mg/kg in Spraguely Dawely rats. Serial blood samples (˜0.2 mL) were taken into EDTA tubes at the indicated time points, and plasma was separated by centrifugation, and frozen at −20 C for analysis. Employing standard bioanalytical techniques, plasma samples were then analysed and quantified for parent remaining compound using a Waters, Xevo TQS LC-MS. PK parameters were determined using the software package PK Solutions 2.0 from Summit Research Services.
# Peptides Ac-(06-550)-Sar3-(D-Arg)2Aze3 HArg5 (which contains the stabilising and affinity enhancing modifications Aze3 and HArg5, and a solubilising C-terminal extension Sar3-(D-Arg)2) (SEQ ID NO: 98) and Ac-(06-259-02)-Sar3-(D-Arg)2 were selected for pharmacokinetic assessment in rat. Peptides were injected intravenously in buffered solution at 1 mg/mL at 5 mg/kg Sprague Dawley rats, and blood was sampled and analysed for peptide concentrations at a number of time points post injection.
# [4] = Pharmacokinetics following intravitreal injection in rabbit; format: in vivo; conditions: vitreous humour; New Zealand White rabbit, intravitreal 100 μg/eye; read-out: elimination half-life from the vitreous humour
# Description: In this analysis, peptide Ac-(06-550)-Sar3-(D-Arg)2 Aze3 HArg5 (referred to in this study as Bicycle 1 and which contains the stabilising and affinity enhancing modifications Aze3 and HArg5, and a solubilising C-terminal extension Sar3-(D-Arg)2 (SEQ ID NO: 98); see Examples 3 and 4 herein) was assessed comparatively against the peptide Ac-(06-34-18) Phe2 Aze3 Tyr4 HArg5 Ala(ψCH2NH)6 (referred to in this study as Bicycle 2 and which is disclosed in Table 26b and FIG. 22 of PCT/EP2014/057440). New Zealand White rabbits (2-3 kg) were anaesthetized and both peptides were administered by intravitreal injection (100 μg/eye) according to the protocol described in Table 9.
# After an appropriate time, rabbits were euthanized and vitreous humour, aqueous humour, retina and plasma samples were taken. Samples were analysed by LC-MS to determine the concentration of the peptide. The results of this study are shown in FIG. 5 where it can be observed that both peptides were slowly cleared from the vitreous humour, with elimination half-lives of 20-30 h.
smiles,measurement,setting,value
CC[C@H](C)[C@@H]1NC(=O)[C@H](CC(=O)O)NC(=O)[C@@H]2CCCN2C(=O)[C@H](Cc2ccc(O)cc2)NC(=O)[C@H](Cc2ccc(O)cc2)NC(=O)[C@H](C(C)C)NC(=O)[C@@H]2CSCc3cc(cc(c3)CSC[C@@H](C(=O)N[C@@H](C)C(=O)N(C)CC(=O)N(C)CC(=O)N(C)CC(=O)N[C@H](CCCNC(=N)N)C(=O)N[C@H](CCCNC(=N)N)C(N)=O)NC1=O)CSC[C@H](NC(C)=O)C(=O)N[C@@H](CO)C(=O)N[C@@H](Cc1ccccc1)C(=O)N1CC[C@H]1C(=O)N[C@@H](Cc1ccc(O)cc1)C(=O)N[C@@H](CCCCNC(=N)N)C(=O)N2 [Ac-(06-550)-Sar3-(DArg2) Aze3HArg5] (Ac-CSF[Aze]Y[hArg]CVYYPDICA[Sar][Sar][Sar][dR][dR]-NH2; linker 1-7-14 via TBMB; C-terminus assumed),Ki,human plasma kallikrein,0.4 nM
same,comparative stability in rat plasma,[1],high stability
same,comparative stability in rat plasma,[1]; listed as 06-550 derivative,Little degradation is observed
same,comparative stability in human plasma,[2],high stability
same,comparative stability in human plasma,[2]; listed as 06-550 derivative,Little degradation is observed
same,clearance,[3],17 mL/min/kg
same,Vd,[3]; read-out: Vss,0.4 L/kg
same,half-life,[3]; read-out: t1/2 elimination,2.27 h
same,half-life,[4],20 to 30 h

# From patent publication US10894808B2, “Polypeptide ligands specific for plasma kallikrein” (BicycleRD Limited, priority 2013, dated 2021)
